Reference: US20140343017A1, “PYRROLE COMPOUND” (Kabushiki Kaisha Yakult Honsha, priority 2012, published 2014)
Where a name gives a salt, the structure may show the parent alone. Read-outs that look alike come from different tables or passages of the source.

Key:
Assay in all cases: Inhibitory effect on growth of human cancer cells (in vitro), WST-8
Format in all cases: cell-based
[1] = tested on: human colorectal cancer HCT116 cells; conditions: 96 hours culture
Procedure: (§1) Each pyrrole compound of the present invention was studied for its effects on the growth of human non-small cell lung cancer A549 cells and human colorectal cancer HT-29 cells and HCT116 cells. The cells of each line were suspended in an RPMI1640 medium supplemented with 10% fetal bovine serum and inoculated at a cell density of 1000 cells/50 μL/well to a 96-well plate. After overnight culture, each compound diluted with a medium was added thereto at a concentration of 50 μL/well, and the cells were further cultured for 96 hours. After the completion of culture, WST-8 (Seikagaku Corp.) was added thereto at a concentration of 10 μL/well, and the cells were cultured at 37° C. for approximately 1 hour under 5% CO2 conditions, followed by measurement of absorbance at 450 nm.

[2] = tested on: human non-small cell lung cancer A549 cells; conditions: 96 hours culture
Procedure: as §1

[3] = tested on: human colorectal cancer HT-29 cells; conditions: 96 hours culture, read-out: IC50 (nM) HT29
Procedure: as §1

Structure (SMILES) | IC50 ([1]; Homo sapiens, HCT-116, 96 h) | IC50 ([2]; Homo sapiens, A549, 96 h) | IC50 ([3]; Homo sapiens, HT-29, 96 h) | IC50 ([1]; hydrochloride) | IC50 ([2]; hydrochloride) | IC50 ([3]; hydrochloride)
Cc1c(-c2nnn(CCN)n2)[nH]c(CO)c1C(=O)c1cccc(Br)c1 [Compound 280, (5-(2-(2-aminoethyl)-2H-tetrazol-5-yl)-2-(hydroxymethyl)-4-methyl-1H-pyrrol-3-yl) (3-bromophenyl)methanone] | 250 nM | 250 nM | 194 nM | – | – | –
COc1ccc(Br)cc1C(=O)c1c(C)[nH]c(-c2nnc(COC(C)=O)o2)c1C [Compound 202, (5-(4-(5-bromo-2-methoxybenzoyl)-3,5-dimethyl-1H-pyrrol-2-yl)-1,3,4-oxadiazol-2-yl)methyl acetate] | 62.4 nM | 127 nM | 50.5 nM | – | – | –
COc1ccc(C(=O)c2c(C(C)O)[nH]c(-c3nnn(CCO)n3)c2C)cc1Br (stereo not drawn) [Compound 131, (3-bromo-4-methoxyphenyl)(2-(1-hydroxyethyl)-5-(2-(2-hydroxyethyl)-2H-tetrazol-5-yl)-4-methyl-1H-pyrrol-3-yl)methanone] | 90.9 nM | 45.1 nM | 34.8 nM | – | – | –
COC(=O)c1[nH]c(-c2nnn(CCO)n2)c(C)c1C(=O)c1cccc(Br)c1 [Compound 137, methyl 3-(3-bromobenzoyl)-5-(2-(2-hydroxyethyl)-2H-tetrazol-5-yl)-4-methyl-1H-pyrrole-2-carboxylate] | 186 nM | 278 nM | 156 nM | – | – | –
Cc1[nH]c(-c2nnc(CO)o2)c(C)c1C(=O)c1cccc(Br)c1 [Compound 211, (3-bromophenyl) (5-(5-(hydroxymethyl)-1,3,4-oxadiazol-2-yl)-2,4-dimethyl-1H-pyrrol-3-yl)methanone] | 49.1 nM | 183 nM | 44.1 nM | – | – | –
COc1ccc(Br)cc1C(=O)c1c(CO)[nH]c(-c2nnc(C3CC3)o2)c1C [Compound 259, (5-bromo-2-methoxyphenyl)(5-(5-cyclopropyl-1,3,4-oxadiazol-2-yl)-2-(hydroxymethyl)-4-methyl-1H-pyrrol-3-yl)methanone] | 39.2 nM | 69.5 nM | 37.2 nM | – | – | –
COc1ccc(C(=O)c2c(C=O)[nH]c(-c3nnn(CCO)n3)c2C)cc1Br [Compound 125, 3-(3-bromo-4-methoxybenzoyl)-5-(2-(2-hydroxyethyl)-2H-tetrazol-5-yl)-4-methyl-1H-pyrrole-2-carboaldehyde] | 93.2 nM | 45.8 nM | 35.2 nM | – | – | –
CCn1nnc(-c2[nH]c(C)c(C(=O)c3cccc(OCCN)c3)c2C)n1 [Compound 296, (3-(2-aminoethoxy)phenyl)(5-(2-ethyl-2H-tetrazol-5-yl)-2,4-dimethyl-1H-pyrrol-3-yl)methanone hydrochloride] | – | – | – | 208 nM | 637 nM | 198 nM
Cc1c(-c2nnc(C3CC3)o2)[nH]c(C=O)c1C(=O)c1cccc(Br)c1 [Compound 261, 3-(3-bromobenzoyl)-5-(5-cyclopropyl-1,3,4-oxadiazol-2-yl)-4-methyl-1H-pyrrole-2-carboaldehyde] | 88.9 nM | 12.9 nM | 9.4 nM | – | – | –
Cc1[nH]c(-c2nnc(C3(O)CC3)o2)c(C)c1C(=O)c1cccc(Br)c1 [Compound 188, (3-bromophenyl)(5-(5-(1-hydroxycyclopropyl)-1,3,4-oxadiazol-2-yl)-2,4-dimethyl-1H-pyrrol-3-yl)methanone] | 40.4 nM | 37.8 nM | 35.1 nM | – | – | –
Cc1[nH]c(-c2nnc(C3(C)CC3)o2)c(C)c1C(=O)c1cccc(Br)c1 [Compound 189, (3-bromophenyl)(2,4-dimethyl-5-(5-(1-methylcyclopropyl)-1,3,4-oxadiazol-2-yl)-1H-pyrrol-3-yl)methanone] | 199 nM | 164 nM | 135 nM | – | – | –
CC(=O)OCCn1nnc(-c2[nH]c(C#N)c(C(=O)c3cccc(Br)c3)c2C)n1 [Compound 132, 2-(5-(4-(3-bromobenzoyl)-5-cyano-3-methyl-1H-pyrrol-2-yl)-2H-tetrazol-2-yl)ethyl acetate] | 167 nM | 248 nM | 179 nM | – | – | –
COc1ccc(C(=O)c2c(C#N)[nH]c(-c3nnn(CCO)n3)c2C)cc1Br [Compound 139, 3-(3-bromo-4-methoxybenzoyl)-5-(2-(2-hydroxyethyl)-2H-tetrazol-5-yl)-4-methyl-1H-pyrrole-2-carbonitrile] | 171 nM | 245 nM | 174 nM | – | – | –
COc1ccc(C(=O)c2c(C(F)F)[nH]c(-c3nnn(CCOC(C)=O)n3)c2C)cc1Br [Compound 126, 2-(5-(4-(3-bromo-4-methoxybenzoyl)-5-(difluoromethyl)-3-methyl-1H-pyrrol-2-yl)-2H-tetrazol-2-yl)ethyl acetate] | 38.2 nM | 38.2 nM | 33.1 nM | – | – | –
Cc1c(-c2nnn(CCO)n2)[nH]c(C#N)c1C(=O)c1cccc(Br)c1 [Compound 133, 3-(3-bromobenzoyl)-5-(2-(2-hydroxyethyl)-2H-tetrazol-5-yl)-4-methyl-1H-pyrrole-2-carbonitrile] | 158 nM | 238 nM | 192 nM | – | – | –

Further compounds by falling IC50 ([1]; Homo sapiens, HCT-116, 96 h), results first:

IC50 ([1]; Homo sapiens, HCT-116, 96 h) | IC50 ([2]; Homo sapiens, A549, 96 h) | IC50 ([3]; Homo sapiens, HT-29, 96 h) | IC50 ([1]; hydrochloride) | IC50 ([2]; hydrochloride) | IC50 ([3]; hydrochloride) | Structure (SMILES)
37.8 nM | 38.6 nM | 30.4 nM | – | – | – | COc1ccc(C(=O)c2c(C=O)[nH]c(-c3nnn(CCOC(C)=O)n3)c2C)cc1Br [Compound 124, 2-(5-(4-(3-bromo-4-methoxybenzoyl)-5-formyl-3-methyl-1H-pyrrol-2-yl)-2H-tetrazol-2-yl)ethyl acetate]
37 nM | 64.9 nM | 20.3 nM | – | – | – | Cc1[nH]c(-c2nnc(CCO)o2)c(C)c1C(=O)c1cccc(Br)c1 [Compound 205, (3-bromophenyl)(5-(5-(2-hydroxyethyl)-1,3,4-oxadiazol-2-yl)-2,4-dimethyl-1H-pyrrol-3-yl)methanone]
9.9 nM | 12.2 nM | 8.5 nM | – | – | – | CCc1nnc(-c2[nH]c(C)c(C(=O)c3cccc([N+](=O)[O-])c3)c2C)o1 [Compound 195, (5-(5-ethyl-1,3,4-oxadiazol-2-yl)-2,4-dimethyl-1H-pyrrol-3-yl)(3-nitrophenyl)methanone]
8.9 nM | 31.1 nM | 5.9 nM | – | – | – | CC(=O)OCCc1nnc(-c2[nH]c(C)c(C(=O)c3cccc(Br)c3)c2C)o1 [Compound 204, 2-(5-(4-(3-bromobenzoyl)-3,5-dimethyl-1H-pyrrol-2-yl)-1,3,4-oxadiazol-2-yl)ethyl acetate]
1.8 nM | 8.2 nM | 1.8 nM | – | – | – | Cc1c(-c2nnc(C3CC3)o2)[nH]c(CO)c1C(=O)c1cccc(Br)c1 [Compound 264, (3-bromophenyl)(5-(5-cyclopropyl-1,3,4-oxadiazol-2-yl)-2-(hydroxymethyl)-4-methyl-1H-pyrrol-3-yl)methanone]
0.4 nM | 1.5 nM | 0.4 nM | – | – | – | Cc1[nH]c(-c2nnc(C3CC3)o2)c(C)c1C(=O)c1cccc(Br)c1 [Compound 177, (3-bromophenyl)(5-(5-cyclopropyl-1,3,4-oxadiazol-2-yl)-2,4-dimethyl-1H-pyrrol-3-yl)methanone]
0.4 nM | 0.7 nM | 0.3 nM | – | – | – | CCc1nnc(-c2c(C)c(C(=O)c3cccc(Br)c3)c(C)n2C(=O)COC(C)=O)o1 [Compound 226, 2-(3-(3-bromobenzoyl)-5-(5-ethyl-1,3,4-oxadiazol-2-yl)-2,4-dimethyl-1H-pyrrol-1-yl)-2-oxoethyl acetate]
